In US11104680B2, “1,5-dihydro-4H-pyrazolo[3,4-d]pyrimidin-4-ones and 1,5-dihydro-4H-pyrazolo[4,3-c]pyridin-4-ones as PDE1 inhibitors” (H. Lundbeck A/S, priority 2016, dated 2021):
One block for each compound: values may come before it.

Experiments:
Assay type in all cases: biochemical
PDE1A = PDE1A (Homo sapiens (Human), UniProt P54750); experiment: PDE1 inhibition assay (PDE1A), SPA; conditions: 15 nM tritium labelled cAMP
Protocol: (§1) Reactions were initiated by addition of the cyclic nucleotide substrate, and reactions were allowed to proceed for 1 hr at room temperature before being terminated through mixing with 20 μL (0.2 mg) yttrium silicate SPA beads (PerkinElmer). The beads were allowed to settle for 1 hr in the dark before the plates were counted in a Wallac 1450 Microbeta counter.

PDE1B = PDE1B (Homo sapiens (Human), UniProt Q01064); experiment: PDE1 inhibition assay (PDE1B), SPA; conditions: 15 nM tritium labelled cAMP
Protocol: Reactions were initiated by addition of the cyclic nucleotide substrate, and reactions were allowed to proceed for 1 hr at room temperature before being terminated through mixing with 20 μL (0.2 mg) yttrium silicate SPA beads (PerkinElmer).

PDE1C = PDE1C (Homo sapiens (Human), UniProt Q14123); experiment: PDE1 inhibition assay (PDE1C), SPA; conditions: 15 nM tritium labelled cAMP
Protocol: as §1

PDE9 = PDE9 (Homo sapiens (Human), UniProt O76083); experiment: PDE9 inhibition assay, SPA; conditions: 10 microM compound; 10 nM 3H-cAMP;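 note: enzyme reaction incubated for 1 h, then stopped by adding yttrium silicate scintillation proximity beads for the read-out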
Sequence of PDE9 (O76083 whole entry): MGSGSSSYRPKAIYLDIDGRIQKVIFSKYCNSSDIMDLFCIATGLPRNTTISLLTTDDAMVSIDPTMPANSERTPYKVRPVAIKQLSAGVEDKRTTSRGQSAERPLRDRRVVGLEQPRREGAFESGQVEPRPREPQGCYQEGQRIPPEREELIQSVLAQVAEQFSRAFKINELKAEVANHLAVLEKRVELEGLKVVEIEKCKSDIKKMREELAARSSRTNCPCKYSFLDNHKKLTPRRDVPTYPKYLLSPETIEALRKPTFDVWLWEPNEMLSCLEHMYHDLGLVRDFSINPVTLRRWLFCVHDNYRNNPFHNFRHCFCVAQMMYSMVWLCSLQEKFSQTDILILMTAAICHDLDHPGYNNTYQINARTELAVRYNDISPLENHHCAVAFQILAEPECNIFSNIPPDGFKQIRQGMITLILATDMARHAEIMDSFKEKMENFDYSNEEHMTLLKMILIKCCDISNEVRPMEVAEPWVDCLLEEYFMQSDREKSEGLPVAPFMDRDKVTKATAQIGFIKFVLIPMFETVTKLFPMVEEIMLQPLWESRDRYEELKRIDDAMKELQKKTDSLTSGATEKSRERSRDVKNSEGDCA
Protocol: Reactions are initiated by addition of the cyclic nucleotide substrate, and reactions are allowed to proceed for one hr at room temperature before being terminated through mixing with 15 μL 8 mg/mL yttrium silicate SPA beads (Amersham).
Following 1 hr incubation the reactions were terminated by addition of 15 uL 8 mg/mL yttrium silicate SPA beads (Amersham).

Sequence of PDE1A (P54750 whole entry): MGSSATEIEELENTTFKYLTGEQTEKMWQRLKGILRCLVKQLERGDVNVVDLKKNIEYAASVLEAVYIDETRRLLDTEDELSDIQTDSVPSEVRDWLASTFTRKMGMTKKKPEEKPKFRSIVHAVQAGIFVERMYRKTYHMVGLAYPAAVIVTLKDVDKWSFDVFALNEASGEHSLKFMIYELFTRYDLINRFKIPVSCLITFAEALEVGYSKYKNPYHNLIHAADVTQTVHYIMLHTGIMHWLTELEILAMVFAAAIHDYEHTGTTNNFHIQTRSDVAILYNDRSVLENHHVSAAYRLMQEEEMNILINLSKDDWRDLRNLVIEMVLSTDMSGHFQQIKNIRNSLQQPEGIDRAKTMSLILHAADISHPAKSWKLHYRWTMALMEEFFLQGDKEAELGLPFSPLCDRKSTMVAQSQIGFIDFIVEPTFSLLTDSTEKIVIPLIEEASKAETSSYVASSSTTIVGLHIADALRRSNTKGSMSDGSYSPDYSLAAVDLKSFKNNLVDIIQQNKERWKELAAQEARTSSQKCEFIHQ
Sequence of PDE1B (Q01064 whole entry): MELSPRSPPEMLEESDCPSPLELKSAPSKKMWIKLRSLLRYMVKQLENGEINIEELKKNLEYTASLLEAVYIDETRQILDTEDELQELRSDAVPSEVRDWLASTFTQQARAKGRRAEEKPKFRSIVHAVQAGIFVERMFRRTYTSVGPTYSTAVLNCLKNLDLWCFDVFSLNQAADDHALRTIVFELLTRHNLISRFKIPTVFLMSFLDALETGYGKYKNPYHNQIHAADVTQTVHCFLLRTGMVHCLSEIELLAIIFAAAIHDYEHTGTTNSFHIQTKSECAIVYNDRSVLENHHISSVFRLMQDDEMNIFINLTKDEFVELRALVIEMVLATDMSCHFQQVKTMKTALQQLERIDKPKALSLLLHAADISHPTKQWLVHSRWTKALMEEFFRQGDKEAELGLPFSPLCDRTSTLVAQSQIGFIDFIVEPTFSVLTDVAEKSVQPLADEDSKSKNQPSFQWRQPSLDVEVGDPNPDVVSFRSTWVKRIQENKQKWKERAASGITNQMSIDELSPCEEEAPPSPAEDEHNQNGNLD
Sequence of PDE1C (Q14123 whole entry): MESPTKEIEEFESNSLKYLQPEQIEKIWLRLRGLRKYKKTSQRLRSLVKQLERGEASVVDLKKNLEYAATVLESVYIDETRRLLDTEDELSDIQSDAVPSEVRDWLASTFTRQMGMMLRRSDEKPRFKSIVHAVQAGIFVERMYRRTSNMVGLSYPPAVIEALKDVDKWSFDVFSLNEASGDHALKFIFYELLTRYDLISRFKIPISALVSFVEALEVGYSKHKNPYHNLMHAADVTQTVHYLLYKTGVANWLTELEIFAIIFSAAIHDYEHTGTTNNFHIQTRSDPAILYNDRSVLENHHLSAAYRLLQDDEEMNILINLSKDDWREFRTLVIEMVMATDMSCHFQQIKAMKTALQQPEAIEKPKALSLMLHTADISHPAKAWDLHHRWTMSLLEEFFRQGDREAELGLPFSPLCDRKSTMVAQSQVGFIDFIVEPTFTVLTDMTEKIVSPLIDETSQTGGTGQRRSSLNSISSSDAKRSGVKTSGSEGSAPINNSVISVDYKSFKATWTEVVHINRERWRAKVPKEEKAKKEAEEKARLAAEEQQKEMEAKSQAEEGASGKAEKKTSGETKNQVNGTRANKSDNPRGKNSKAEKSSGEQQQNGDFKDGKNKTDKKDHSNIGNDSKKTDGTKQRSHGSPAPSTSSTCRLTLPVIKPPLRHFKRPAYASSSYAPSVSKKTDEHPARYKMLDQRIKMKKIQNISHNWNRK

Structure (SMILES): COc1ccc(Cn2c(C)cc3c(cnn3[C@@H]3CCO[C@H]3C)c2=O)cc1 (relative stereo) [Example 26, 5-[(4-methoxyphenyl)methyl]-6-methyl-1-[(trans)-2-methyltetrahydrofuran-3-yl]pyrazolo[4,3-c]pyridin-4-one]
IC50 (PDE1A): 206 nM
IC50 (PDE1B): 83 nM
IC50 (PDE1C): 345 nM
inhibition at 10 µM (PDE9): 8%

Structure (SMILES): COc1ccc(Cn2c(C)cc3c(cnn3[C@@H]3CCO[C@@H]3C)c2=O)cc1 (relative stereo) [Example 27, 5-[(4-methoxyphenyl)methyl]-6-methyl-1-[(cis)-2-methyltetrahydrofuran-3-yl]pyrazolo[4,3-c]pyridin-4-one]
IC50 (PDE1A): 1300 nM
IC50 (PDE1B): 179 nM
IC50 (PDE1C): 686 nM
inhibition at 10 µM (PDE9): 13%

Structure (SMILES): O=c1c2cnn(C3CCOCC3)c2nc(Cc2ccccc2)n1CC1CCCCC1 [Example 1, 6-benzyl-5-(cyclohexylmethyl)-1-(tetrahydro-2H-pyran-4-yl)-1,5-dihydro-4H-pyrazolo[3,4-d]pyrimidin-4-one]
IC50 (PDE1A): 349 nM
IC50 (PDE1B): 320 nM
IC50 (PDE1C): 120 nM
inhibition at 10 µM (PDE9): 51%

Structure (SMILES): COc1ccc(Cn2c(C)nc3c(cnn3C3CCOCC3)c2=O)cc1 [Example 2, 5-(4-methoxybenzyl)-6-methyl-1-(tetrahydro-2H-pyran-4-yl)-1H-pyrazolo[3,4-d]pyrimidin-4(5H)-one]
IC50 (PDE1A): 132 nM
IC50 (PDE1B): 62 nM
IC50 (PDE1C): 74 nM
inhibition at 10 µM (PDE9): 10%

Structure (SMILES): Cc1nc2c(cnn2C2CCOCC2)c(=O)n1CC1CCCCC1 [Example 3, 5-(cyclohexylmethyl)-6-methyl-1-tetrahydropyran-4-yl-pyrazolo[3,4-d]pyrimidin-4-one]
IC50 (PDE1A): 172 nM
IC50 (PDE1B): 103 nM
IC50 (PDE1C): 29 nM
inhibition at 10 µM (PDE9): 29%

Structure (SMILES): CCCn1ncc2c(=O)n(Cc3ccc(OC)cc3)c(C)nc21 [Example 4, 5-[(4-methoxyphenyl)methyl]-6-methyl-1-propyl-pyrazolo[3,4-d]pyrimidin-4-one]
IC50 (PDE1A): 108 nM
IC50 (PDE1B): 68 nM
IC50 (PDE1C): 72 nM
inhibition at 10 µM (PDE9): 13%

Structure (SMILES): CCCn1ncc2c(=O)n(CC3CCCCC3)c(C)nc21 [Example 5, 5-(cyclohexylmethyl)-6-methyl-1-propyl-pyrazolo[3,4-d]pyrimidin-4-one]
IC50 (PDE1A): 111 nM
IC50 (PDE1B): 31 nM
IC50 (PDE1C): 36 nM
inhibition at 10 µM (PDE9): -16%

Structure (SMILES): CCc1nc2c(cnn2C2CCOCC2)c(=O)n1Cc1ccc(OC)cc1 [Example 6, 6-ethyl-5-[(4-methoxyphenyl)methyl]-1-tetrahydropyran-4-yl-pyrazolo[3,4-d]pyrimidin-4-one]
IC50 (PDE1A): 107 nM
IC50 (PDE1B): 80 nM
IC50 (PDE1C): 140 nM
inhibition at 10 µM (PDE9): 2%

Structure (SMILES): COCc1nc2c(cnn2C2CCOCC2)c(=O)n1Cc1ccc(OC)cc1 [Example 7, 6-(methoxymethyl)-5-[(4-methoxyphenyl)methyl]-1-tetrahydropyran-4-yl-pyrazolo[3,4-d]pyrimidin-4-one]
IC50 (PDE1A): 325 nM
IC50 (PDE1B): 181 nM
IC50 (PDE1C): 345 nM
inhibition at 10 µM (PDE9): -12%

Structure (SMILES): COc1ccc(Cn2c(C(C)C)nc3c(cnn3C3CCOCC3)c2=O)cc1 [Example 8, 6-isopropyl-5-[(4-methoxyphenyl)methyl]-1-tetrahydropyran-4-yl-pyrazolo[3,4-d]pyrimidin-4-one]
IC50 (PDE1A): 751 nM
IC50 (PDE1B): 211 nM
IC50 (PDE1C): 1320 nM
inhibition at 10 µM (PDE9): 7%

Structure (SMILES): COc1ccc(Cn2c(CC3COC3)nc3c(cnn3C3CCOCC3)c2=O)cc1 [Example 9, 5-[(4-methoxyphenyl)methyl]-6-(oxetan-3-ylmethyl)-1-tetrahydropyran-4-yl-pyrazolo[3,4-d]pyrimidin-4-one]
IC50 (PDE1B): 58 nM
IC50 (PDE1C): 165 nM
inhibition at 10 µM (PDE9): 12%

IC50 (PDE1A): 1070 nM
IC50 (PDE1C): 149 nM
inhibition at 10 µM (PDE9): 3%
Structure (SMILES): Cc1cc2c(cnn2C2CCOCC2)c(=O)n1Cc1cccc(F)c1 [Example 10, 5-[(3-fluorophenyl)methyl]-6-methyl-1-tetrahydropyran-4-yl-pyrazolo[4,3-c]pyridin-4-one]

IC50 (PDE1A): 589 nM
IC50 (PDE1C): 61 nM
inhibition at 10 µM (PDE9): 12%
Structure (SMILES): Cc1cc2c(cnn2C2CCOCC2)c(=O)n1Cc1ccccc1F [Example 11, 5-[(2-fluorophenyl)methyl]-6-methyl-1-tetrahydropyran-4-yl-pyrazolo[4,3-c]pyridin-4-one]

IC50 (PDE1A): 127 nM
IC50 (PDE1C): 419 nM
inhibition at 10 µM (PDE9): 16%
Structure (SMILES): Cc1cc2c(cnn2C2CCOCC2)c(=O)n1Cc1ccc(Cl)cc1 [Example 12, 5-[(4-chlorophenyl)methyl]-6-methyl-1-tetrahydropyran-4-yl-pyrazolo[4,3-c]pyridin-4-one]

IC50 (PDE1A): 1260 nM
IC50 (PDE1C): 135 nM
inhibition at 10 µM (PDE9): -18%
Structure (SMILES): Cc1cc2c(cnn2C2CCOCC2)c(=O)n1Cc1ccccc1 [Example 13, 5-benzyl-6-methyl-1-tetrahydropyran-4-yl-pyrazolo[4,3-c]pyridin-4-one]

Structure (SMILES): Cc1cc2c(cnn2C2CCOCC2)c(=O)n1Cc1cccc(Cl)c1 [Example 14, 5-[(3-chlorophenyl)methyl]-6-methyl-1-tetrahydropyran-4-yl-pyrazolo[4,3-c]pyridin-4-one]
IC50 (PDE1A): 1300 nM
IC50 (PDE1B): 413 nM
IC50 (PDE1C): 95 nM
inhibition at 10 µM (PDE9): -15%

Structure (SMILES): Cc1cc2c(cnn2C2CCOCC2)c(=O)n1Cc1ccc(F)cc1 [Example 15, 5-[(4-fluorophenyl)methyl]-6-methyl-1-tetrahydropyran-4-yl-pyrazolo[4,3-c]pyridin-4-one]
IC50 (PDE1A): 1240 nM
IC50 (PDE1B): 258 nM
IC50 (PDE1C): 204 nM
inhibition at 10 µM (PDE9): -13%

Structure (SMILES): Cc1ccc(Cn2c(C)cc3c(cnn3C3CCOCC3)c2=O)cc1 [Example 16, 6-methyl-5-(p-tolylmethyl)-1-tetrahydropyran-4-yl-pyrazolo[4,3-c]pyridin-4-one]
IC50 (PDE1A): 400 nM
IC50 (PDE1B): 71 nM
IC50 (PDE1C): 496 nM
inhibition at 10 µM (PDE9): -1%

Structure (SMILES): Cc1cc2c(cnn2C2CCOCC2)c(=O)n1Cc1ccc2c(c1)OCO2 [Example 17, 5-(1,3-benzodioxol-5-ylmethyl)-6-methyl-1-tetrahydropyran-4-yl-pyrazolo[4,3-c]pyridin-4-one]
IC50 (PDE1A): 429 nM
IC50 (PDE1B): 154 nM
IC50 (PDE1C): 662 nM
inhibition at 10 µM (PDE9): -2%

IC50 (PDE1A): 738 nM
IC50 (PDE1C): 1170 nM
inhibition at 10 µM (PDE9): 9%
Structure (SMILES): COc1ccc(Cn2c(C)cc3c(cnn3C3CCOCC3)c2=O)cn1 [Example 18, 5-[(6-methoxy-3-pyridyl)methyl]-6-methyl-1-tetrahydropyran-4-yl-pyrazolo[4,3-c]pyridin-4-one]

IC50 (PDE1A): 184 nM
IC50 (PDE1C): 171 nM
inhibition at 10 µM (PDE9): 19%
Structure (SMILES): COc1ccc(Cn2c(C)cc3c(cnn3C3CCOCC3)c2=O)cc1 [Example 19, 5-(4-methoxybenzyl)-6-methyl-1-(tetrahydro-2H-pyran-4-yl)-1,5-dihydro-4H-pyrazolo[4,3-c]pyridin-4-one]

Structure (SMILES): CCCn1ncc2c(=O)n(Cc3ccc(OC)cc3)c(C)cc21 [Example 20, 5-(4-methoxybenzyl)-6-methyl-1-propyl-1,5-dihydro-4H-pyrazolo[4,3-c]pyridin-4-one]
IC50 (PDE1A): 290 nM
IC50 (PDE1B): 82 nM
IC50 (PDE1C): 233 nM
inhibition at 10 µM (PDE9): 19%

Structure (SMILES): COc1ccc(Cn2c(C)cc3c(cnn3C(C)C)c2=O)cc1 [Example 21, 1-isopropyl-5-[(4-methoxyphenyl)methyl]-6-methyl-pyrazolo[4,3-c]pyridin-4-one]
IC50 (PDE1A): 49 nM
IC50 (PDE1B): 37 nM
IC50 (PDE1C): 134 nM
inhibition at 10 µM (PDE9): -14%

Structure (SMILES): COc1ccc(Cn2c(C)cc3c(cnn3C3CCOC3)c2=O)cc1 (stereo not drawn) [Example 22, 5-[(4-methoxyphenyl)methyl]-6-methyl-1-tetrahydrofuran-3-yl-pyrazolo[4,3-c]pyridin-4-one]
IC50 (PDE1A): 1690 nM
IC50 (PDE1B): 569 nM
IC50 (PDE1C): 1200 nM
inhibition at 10 µM (PDE9): 8%

Structure (SMILES): COc1ccc(Cn2c(C)cc3c(cnn3C3CC3)c2=O)cc1 [Example 23, 1-cyclopropyl-5-[(4-methoxyphenyl)methyl]-6-methyl-pyrazolo[4,3-c]pyridin-4-one]
IC50 (PDE1A): 543 nM
IC50 (PDE1B): 255 nM
IC50 (PDE1C): 975 nM
inhibition at 10 µM (PDE9): -6%

Structure (SMILES): CCn1ncc2c(=O)n(Cc3ccc(OC)cc3)c(C)cc21 [Example 24, 1-ethyl-5-[(4-methoxyphenyl)methyl]-6-methyl-pyrazolo[4,3-c]pyridin-4-one]
IC50 (PDE1A): 1120 nM
IC50 (PDE1B): 329 nM
IC50 (PDE1C): 1330 nM
inhibition at 10 µM (PDE9): 19%

IC50 (PDE1A): 825 nM
IC50 (PDE1C): 644 nM
inhibition at 10 µM (PDE9): 8%
Structure (SMILES): COc1ccc(Cn2c(C)cc3c(cnn3C3CCCOC3)c2=O)cc1 (stereo not drawn) [Example 25, 5-[(4-methoxyphenyl)methyl]-6-methyl-1-tetrahydropyran-3-yl-pyrazolo[4,3-c]pyridin-4-one]

Structure (SMILES): COc1ccc(Cn2c(C)cc3c(cnn3C3COC3)c2=O)cc1 [Example 28, 5-(4-methoxybenzyl)-6-methyl-1-(oxetan-3-yl)-1,5-dihydro-4H-pyrazolo[4,3-c]pyridin-4-one]
inhibition at 10 µM (PDE1A; read-out: PDE1A, % inhibition @10 μM, 10 μM compound): 63%
IC50 (PDE1B): 704 nM
IC50 (PDE1C): 2180 nM
inhibition at 10 µM (PDE9): 14%

Structure (SMILES): COc1ccc(Cn2c(C)cc3c(cnn3C3(C)CCOCC3)c2=O)cc1 [Example 29, 5-(4-methoxybenzyl)-6-methyl-1-(4-methyltetrahydro-2H-pyran-4-yl)-1,5-dihydro-4H-pyrazolo[4,3-c]pyridin-4-one]
IC50 (PDE1A): 119 nM
IC50 (PDE1B): 87 nM
IC50 (PDE1C): 174 nM
inhibition at 10 µM (PDE9): 26%
